In brackets after ≈: the same amount, converted by molar mass. Where two headings read alike, the source gives them in different places.

The text below walks through data of US4341784A, “Naphthyridine derivatives” (priority 1979, dated 1982).

What all share (assay): In vitro antibacterial activity (MIC, agar dilution method)
Assay type in all cases: cell-based
(Agar dilution tests growth on a series of plates holding different concentrations.)

The subject of test [1] is Shigella flexneri 4a P-330. Particulars: 4AP330, read-out: minimum inhibitory concentration (MIC). As for the experimental part:
(§1) The minimum inhibitory concentrations (MIC, μg/ml) of the following compounds in vitro were measured by the agar dilution method of [Chemotherapy, Vol. 22, No. 16, page 1126 (1974)].

Test [2] has as its system Staphylococcus epidermidis No. 8. The following applies: Staphylococcus epidermidis No. 8; agar dilution; read-out: minimum inhibitory concentration (MIC). As for the experimental part: as §1
The subject of a further test is Shigella flexneri 2a. Particulars: read-out: minimum inhibitory concentration (MIC). As for the experimental part:
as §1

The subject of test [3] is Klebsiella pneumoniae No. 13. Particulars: Klebsiella pneumoniae No. 13; agar dilution; read-out: minimum inhibitory concentration (MIC). As for the experimental part:
as §1

Test [4] has as its system Enterobacter cloacae P-2540. Particulars: P2540; Enterobacter cloacae P-2540; agar dilution; read-out: minimum inhibitory concentration (MIC). As for the experimental part:
as §1

The subject of test [5] is Salmonella typhimurium S-9. Particulars: Salmonella enterica; Salmonella typhimurium S-9; agar dilution; read-out: minimum inhibitory concentration (MIC). As for the experimental part:
as §1

The subject of test [6] is Serratia marcescens IFO 3736. The following applies: IFO3736; Serratia marcescens IFO 3736; agar dilution; read-out: minimum inhibitory concentration (MIC). As for the experimental part:
as §1

A further test concerns Proteus morganii Kono. The following applies: Morganella morganii; Proteus morganii Kono; agar dilution; read-out: minimum inhibitory concentration (MIC). As for the experimental part:
as §1

The subject of test [7] is Pseudomonas aeruginosa No. 12. As for the experimental part: as §1
A further test concerns Proteus mirabilis P-2381. Particulars: P2381; Proteus mirabilis P-2381; agar dilution; read-out: minimum inhibitory concentration (MIC). As for the experimental part: as §1
The test system of test [8] is Pseudomonas aeruginosa Tsuchiijima. The following applies: read-out: minimum inhibitory concentration (MIC). As for the experimental part:
as §1

Test [9] relates to Staphylococcus aureus No. 50774. As for the experimental part: as §1
In test [10] the test system is Staphylococcus aureus Smith. The following applies: read-out: minimum inhibitory concentration (MIC). As for the experimental part: as §1
The test system of test [11] is Streptococcus pyogenes 65A. Particulars: read-out: minimum inhibitory concentration (MIC). As for the experimental part:
as §1

Test [12] concerns Escherichia coli NIHJ JC-2. The following applies: NIHJJC2; Escherichia coli NIHJ JC-2; agar dilution; read-out: minimum inhibitory concentration (MIC). As for the experimental part: as §1
The test system of test [13] is Salmonella enteritidis No. 1891. Particulars: Salmonella enterica, read-out: minimum inhibitory concentration (MIC). As for the experimental part: as §1
For another test, the system named is Escherichia coli P-5101. The following applies: P5101; Escherichia coli P-5101; agar dilution; read-out: minimum inhibitory concentration (MIC). As for the experimental part: as §1
Test [14] has as its system Staphylococcus aureus 209P JC-1. Particulars: read-out: minimum inhibitory concentration (MIC). As for the experimental part:
as §1

Test [15] concerns Streptococcus faecalis P-2473. The following applies: Enterococcus faecalis, P2473, read-out: minimum inhibitory concentration (MIC). As for the experimental part: as §1
For test [16], the system named is Corynebacterium pyogenes C-21. As for the experimental part: as §1
Another test deals with Escherichia coli P-140a. Particulars: P140A; Escherichia coli P-140a; agar dilution; read-out: minimum inhibitory concentration (MIC). As for the experimental part: as §1
Test [17] deals with Staphylococcus aureus No. 80. The following applies: Staphylococcus aureus No. 80; agar dilution; read-out: minimum inhibitory concentration (MIC). As for the experimental part: as §1

For the compound `CCn1cc(C(=O)O)c(=O)c2ccc(N3CCCC3)nc21` [Compound A, 1-Ethyl-1,4-dihydro-4-oxo-7-(1-pyrrolidinyl)-1,8-naphthyridine-3-carboxylicacid], the MIC in [1] was 6.25 µg/mL (≈ 21.8 µM); in test [2] it was 3.13 µg/mL (≈ 10.9 µM); in the test on Shigella flexneri 2a it was greater than 200 µg/mL; in test [3] it was greater than 200 µg/mL; in test [4], greater than 200 µg/mL; in test [5], 50 µg/mL (≈ 174 µM). Besides, the MIC was greater than 200 µg/mL in [6]; greater than 200 µg/mL in the test with Proteus morganii Kono; greater than 200 µg/mL in test [7] (Pseudomonas aeruginosa, NO.12, read-out: minimum inhibitory concentration (MIC)); greater than 200 µg/mL with Proteus mirabilis P-2381; greater than 200 µg/mL in test [8] (Pseudomonas aeruginosa); 6.25 µg/mL (≈ 21.8 µM) in test [9] (Staphylococcus aureus, NO.50774, read-out: minimum inhibitory concentration (MIC)). Further, the MIC is 6.25 µg/mL (≈ 21.8 µM) in test [10] (Staphylococcus aureus); greater than 200 µg/mL in test [11] (Streptococcus pyogenes, 65A); 25 µg/mL (≈ 87 µM) in [12]; 6.25 µg/mL (≈ 21.8 µM) in test [13] (ENTERITIDIS); 50 µg/mL (≈ 174 µM) in the test on Escherichia coli P-5101; 12.5 µg/mL (≈ 43.5 µM) in test [14] (Staphylococcus aureus, 209P). Further, the MIC in test [15] was greater than 200 µg/mL; in test [16] (Corynebacterium pyogenes, C21, read-out: minimum inhibitory concentration (MIC)) it was greater than 200 µg/mL; with Escherichia coli P-140a, 3.13 µg/mL (≈ 10.9 µM); in test [17], 3.13 µg/mL (≈ 10.9 µM).

In the case of `CCn1cc(C(=O)O)c(=O)c2cc(Cl)c(N3CCCC3)nc21` [Compound B, 6-Chloro-1-ethyl-1,4-dihydro-4-oxo-7-(1-pyrrolidinyl)-1,8-naphthyridine-3-carboxylic acid], the MIC in [1] is greater than 100 µg/mL; in test [2], 3.13 µg/mL (≈ 9.73 µM); with Shigella flexneri 2a, 50 µg/mL (≈ 155 µM); in test [3], greater than 100 µg/mL; in test [4] it was 50 µg/mL (≈ 155 µM); in test [5], 50 µg/mL (≈ 155 µM). In addition, the MIC is greater than 100 µg/mL in [6]; greater than 100 µg/mL in the test with Proteus morganii Kono; greater than 100 µg/mL in test [7] (Pseudomonas aeruginosa No. 12, agar dilution, read-out: minimum inhibitory concentration (MIC)); greater than 100 µg/mL in the test on Proteus mirabilis P-2381; greater than 100 µg/mL in test [8] (Pseudomonas aeruginosa Tsuchiijima, agar dilution); 6.25 µg/mL (≈ 19.4 µM) in [9] (Staphylococcus aureus No. 50774, agar dilution, read-out: minimum inhibitory concentration (MIC)). The MIC is 6.25 µg/mL (≈ 19.4 µM) in test [10] (Staphylococcus aureus Smith, agar dilution); 50 µg/mL (≈ 155 µM) in test [11] (Streptococcus pyogenes 65A, agar dilution); 50 µg/mL (≈ 155 µM) in [12]; 25 µg/mL (≈ 77.7 µM) in test [13] (Salmonella enteritidis No. 1891, agar dilution); 50 µg/mL (≈ 155 µM) with Escherichia coli P-5101; 12.5 µg/mL (≈ 38.8 µM) in [14] (Staphylococcus aureus 209P JC-1, agar dilution). The MIC in test [15] is greater than 200 µg/mL; in test [16] (C21, Corynebacterium pyogenes C-21, agar dilution, read-out: minimum inhibitory concentration (MIC)) it was 50 µg/mL (≈ 155 µM); with Escherichia coli P-140a it was 50 µg/mL (≈ 155 µM); in test [17], 6.25 µg/mL (≈ 19.4 µM).
